Active and inactive are the calls of the source. No cut-off for these calls is given here.
System: HL-60
Assay: Cytotoxicity against human HL60 cells at 10 ug/mL by MTT assay
Format: functional, cell-based

Structure (SMILES): C=C(C)[C@@H]1CC[C@]2(C(=O)O[C@@H]3O[C@H](CO[C@@H]4O[C@H](CO)[C@@H](O[C@@H]5O[C@@H](C)[C@H](O)[C@@H](O)[C@H]5O)[C@H](O)[C@H]4O)[C@@H](O)[C@H](O)[C@H]3O)CC[C@]3(C)[C@H](CC[C@@H]4[C@@]5(C)CC[C@H](O[C@@H]6OC[C@H](O)[C@H](O)[C@H]6O)[C@@](C)(CO)[C@@H]5CC[C@]43C)[C@@H]12
- Activity: inactive

Structure (SMILES): C=C(C)[C@@H]1CC[C@]2(C(=O)O)CC[C@]3(C)[C@H](CC[C@@H]4[C@@]5(C)CC[C@H](O[C@@H]6OC[C@H](O)[C@H](O)[C@H]6O[C@@H]6O[C@@H](C)[C@H](O)[C@@H](O)[C@H]6O)[C@@](C)(CO)[C@@H]5CC[C@]43C)[C@@H]12
- Activity: inactive

Structure (SMILES): C=C(C)[C@@H]1CC[C@]2(C(=O)O[C@@H]3O[C@H](CO[C@@H]4O[C@H](CO)[C@@H](O[C@@H]5O[C@@H](C)[C@H](O)[C@@H](O)[C@H]5O)[C@H](O)[C@H]4O)[C@@H](O)[C@H](O)[C@H]3O)CC[C@]3(C)[C@H](CC[C@@H]4[C@@]5(C)CC[C@H](O[C@@H]6OC[C@H](O[C@@H]7O[C@H](CO)[C@@H](O)[C@H](O)[C@H]7O)[C@H](O)[C@H]6O[C@@H]6O[C@@H](C)[C@H](O)[C@@H](O)[C@H]6O)[C@@](C)(CO)[C@@H]5CC[C@]43C)[C@@H]12
- Activity: inactive

Structure (SMILES): C=C(C)[C@@H]1CC[C@]2(C(=O)O[C@@H]3O[C@H](CO[C@@H]4O[C@H](CO)[C@@H](O[C@@H]5O[C@@H](C)[C@H](O)[C@@H](O)[C@H]5O)[C@H](O)[C@H]4O)[C@@H](O)[C@H](O)[C@H]3O)CC[C@]3(C)[C@H](CC[C@@H]4[C@@]5(C)CC[C@H](O[C@@H]6OC[C@H](O)[C@H](O)[C@H]6O[C@@H]6O[C@@H](C)[C@H](O)[C@@H](O)[C@H]6O)C(C)(C)[C@@H]5CC[C@]43C)[C@@H]12
- Activity: inactive

Structure (SMILES): C[C@@H]1O[C@@H](O[C@H]2[C@H](O[C@H]3CC[C@@]4(C)[C@@H](CC[C@]5(C)[C@@H]4CC[C@@H]4[C@H]6[C@H](C(C)(C)O)CC[C@]6(C(=O)O[C@@H]6O[C@H](CO[C@@H]7O[C@H](CO)[C@@H](O[C@@H]8O[C@@H](C)[C@H](O)[C@@H](O)[C@H]8O)[C@H](O)[C@H]7O)[C@@H](O)[C@H](O)[C@H]6O)CC[C@]45C)[C@]3(C)CO)OC[C@H](O)[C@@H]2O)[C@H](O)[C@H](O)[C@H]1O
- Activity: inactive

Structure (SMILES): C=C(C)[C@@H]1CC[C@]2(C(=O)O[C@@H]3O[C@H](CO[C@@H]4O[C@H](CO)[C@@H](O[C@@H]5O[C@@H](C)[C@H](O)[C@@H](O)[C@H]5O)[C@H](O)[C@H]4O)[C@@H](O)[C@H](O)[C@H]3O)CC[C@]3(C)[C@H](CC[C@@H]4[C@@]5(C)CC[C@H](O[C@@H]6OC[C@H](O)[C@H](O)[C@H]6O[C@@H]6O[C@@H](C)[C@H](O)[C@@H](O)[C@H]6O)[C@@](C)(CO)[C@@H]5CC[C@]43C)[C@@H]12
- Activity: inactive

Structure (SMILES): C=C(C)[C@@H]1CC[C@]2(C(=O)O[C@@H]3O[C@H](CO[C@@H]4O[C@H](CO)[C@@H](O[C@@H]5O[C@@H](C)[C@H](O)[C@@H](O)[C@H]5O)[C@H](O)[C@H]4O)[C@@H](O)[C@H](O)[C@H]3O)CC[C@]3(C)[C@H](CC[C@@H]4[C@@]5(C)CC[C@H](O[C@@H]6OC[C@H](O[C@@H]7O[C@H](CO)[C@@H](O[C@@H]8O[C@H](CO)[C@@H](O)[C@H](O)[C@H]8O)[C@H](O)[C@H]7O)[C@H](O)[C@H]6O[C@@H]6O[C@@H](C)[C@H](O)[C@@H](O)[C@H]6O)[C@@](C)(CO)[C@@H]5CC[C@]43C)[C@@H]12
- Activity: inactive
